Reference: ChEMBL document CHEMBL4689842, “EUbOPEN Chemogenomics Library wave 1” (2021)

Assays:
Assay type in all cases: toxicity, cell-based
[1] = test system: HEK-293T; experiment: Incucyte cell viability with HEK293T; conditions: human, 10 µM, compound concentration 10 uM
[2] = test system: Fibroblast; experiment: Incucyte cell viability with human fibroblast; conditions: 10 µM, compound concentration 10 uM
[3] = test system: U2OS; experiment: Incucyte cell viability with U2OS; conditions: human, 10 µM, compound concentration 10 uM
[4] = 0 h, replicate number 1, timepoint 0 hours
[5] = 0 h, replicate number 2, timepoint 0 hours
[6] = 6 h, replicate number 1, timepoint 6 hours
[7] = 12 h, replicate number 1, timepoint 12 hours
[8] = 18 h, replicate number 1, timepoint 18 hours
[9] = 24 h, replicate number 1, timepoint 24 hours
[10] = 24 h, replicate number 2, timepoint 24 hours
[11] = 12 h, replicate number 2, timepoint 12 hours
[12] = 18 h, replicate number 2, timepoint 18 hours
[13] = 6 h, replicate number 2, timepoint 6 hours
Further: filed as whole numbers so only -1 and 0 and 1 occur.

Row | Structure (SMILES) | Growth Rate [1, 4] | Growth Rate [1, 5] | Growth Rate [1, 6] | Growth Rate [1, 7] | Growth Rate [1, 8] | Growth Rate [1, 9] | Growth Rate [1, 10] | Growth Rate [2, 4] | Growth Rate [2, 6] | Growth Rate [2, 7] | Growth Rate [2, 8] | Growth Rate [2, 9] | Growth Rate [3, 4] | Growth Rate [3, 6] | Growth Rate [3, 13] | Growth Rate [3, 7] | Growth Rate [3, 11] | Growth Rate [3, 8] | Growth Rate [3, 9] | Growth Rate [1, 13] | other results
1 | COc1cc(-c2cn([C@H]3CCc4c(F)cccc4N(CC(F)(F)F)C3=O)nn2)ccc1-n1cnc(C)c1 | 0 | 1 | 0 | 0 | 1 | 1 | 0 | 0 | 0 | 1 | 1 | 1 | 0 | 0 | 1 | 0 | 1 | 0 | 0 | – | Growth Rate [2, 11]: 0; Growth Rate [2, 12]: 0; Growth Rate [2, 10]: 0; Growth Rate [3, 12]: 1; Growth Rate [3, 10]: 1
2 | N#Cc1ccc(NC(=O)Nc2ccccc2Br)c2nn[nH]c12 | 0 | – | – | 1 | 1 | 1 | – | 0 | 1 | 1 | 1 | 1 | 0 | – | 1 | 1 | – | 1 | 1 | 1 | Growth Rate [2, 5]: 1; Growth Rate [3, 5]: 1
3 | CCOc1cc(N2CCC(O)CC2)ccc1Nc1ncc2c(n1)N(C)c1ccccc1C(=O)N2C | 0 | 1 | – | – | – | 1 | 0 | 1 | 1 | 1 | 1 | 1 | 0 | 0 | – | 1 | – | 1 | 1 | 1 | Growth Rate [1, 11]: 1; Growth Rate [1, 12]: 1; Growth Rate [2, 13]: 0; Growth Rate [3, 5]: 1
4 | CN([C@@H]1CCc2c(CC(=O)O)c3cc(S(C)(=O)=O)ccc3n2C1)S(=O)(=O)c1ccc(F)cc1 [CRTH2-negative-control] | 1 | 0 | 0 | 0 | 0 | 0 | 1 | 0 | – | 1 | 1 | 1 | 0 | 0 | – | 1 | 0 | 0 | 0 | 1 | Growth Rate [1, 11]: 1; Growth Rate [1, 12]: 1; Growth Rate [2, 13]: 0; Growth Rate [2, 11]: 0; Growth Rate [2, 12]: 0; Growth Rate [2, 10]: 0; Growth Rate [3, 12]: 1
5 | O=C(O)C[C@H]1CCc2c1[nH]c1ccc(OCc3ccc(C4CCCC4)c(C(F)(F)F)c3)cc21 [ETRASIMOD] | 0 | – | 1 | 0 | 0 | 0 | – | 0 | 1 | 1 | 1 | 0 | 0 | – | 0 | 0 | 1 | 1 | 1 | – | Growth Rate [1, 11]: 1; Growth Rate [1, 12]: 1; Growth Rate [2, 5]: 1; Growth Rate [2, 13]: 0; Growth Rate [2, 10]: 1; Growth Rate [3, 5]: 1
6 | CC1(C)CCC(C)(C)c2cc(C3(c4ccc(C(=O)O)cc4)OCCO3)ccc21 | 0 | – | – | 1 | 1 | 1 | – | 0 | 1 | 1 | 1 | 1 | 0 | – | 0 | 1 | 0 | 1 | 1 | 0 | Growth Rate [3, 12]: 0
7 | CC(C)(C)NCC(O)COc1cccc2[nH]c(=O)[nH]c12.Cl (centres undefined) | 1 | 0 | 0 | 0 | 1 | 1 | 0 | 0 | – | 1 | 1 | 1 | 0 | – | 0 | 1 | – | 1 | 1 | – | Growth Rate [2, 13]: 0; Growth Rate [2, 11]: 0
8 | Clc1cccc(-c2nnnn2Cc2cccnc2)c1Cl | 1 | 0 | 1 | 1 | 1 | 1 | 0 | 0 | 1 | 0 | 0 | 0 | – | 1 | 0 | 0 | 1 | 0 | 1 | 0 | Growth Rate [2, 13]: 0; Growth Rate [3, 12]: 1
9 | CN1C(=O)[C@@H](N2CCc3cn(Cc4ccccc4)nc3C2=O)COc2ccccc21 [TP-030-1] | 0 | 1 | – | – | – | – | 1 | – | 0 | 0 | 0 | 0 | – | 1 | – | 1 | – | 1 | 1 | – | Growth Rate [2, 5]: 1; Growth Rate [3, 5]: 0
10 | C[S+]([O-])c1ccc(-c2nc(-c3ccncc3)c(-c3ccc(F)cc3)[nH]2)cc1 (centres undefined) [SB-203580] | 0 | – | 0 | 0 | 0 | 0 | – | 0 | – | – | – | – | – | – | 0 | – | 1 | 1 | 1 | – | Growth Rate [2, 13]: 0; Growth Rate [2, 11]: 1; Growth Rate [2, 12]: 1; Growth Rate [2, 10]: 1
11 | Cc1nc(C2CCN(C(=O)c3ccc(OC(F)(F)F)cc3N)CC2)c2ncc(N3CCN(C)CC3)cc2n1 [BAY-693] | 0 | 1 | – | – | – | – | 1 | 1 | 1 | 1 | 1 | 1 | 0 | 0 | 1 | 0 | 1 | 0 | 0 | – | Growth Rate [2, 5]: 0; Growth Rate [3, 12]: 1; Growth Rate [3, 10]: 1
12 | O=C(Nc1cnc(Oc2ccc(F)cc2)nc1)N1CCc2ncccc2[C@@H]1c1ccc(F)cc1 [BAY-899] | 0 | – | 0 | 0 | 0 | 0 | – | 0 | 1 | 1 | 1 | 1 | 0 | – | – | 1 | – | 1 | 0 | 1 | Growth Rate [3, 10]: 1
